This is an account of results in ChEMBL document CHEMBL1158263, “A New Prenylated Flavone from Artocarpus champeden” (J Nat Prod, 1996).

Molecules are shown by their SMILES. In brackets after ≈: the same amount, converted by molar mass.

This data set in a line: Toxicity against Artemia salina. The class given is organism-based. Particulars: in vivo.

`CC(C)=CC1Oc2cc(O)c(O)cc2-c2oc3cc(O)cc(O)c3c(=O)c21` (stereo unspecified) [CYCLOCHAMPEDOL]: the LC50 (usually the concentration lethal to half of the exposed cells or organisms) was 15.1 µg/mL (≈ 41 µM).
